Measured values from PubChem BioAssay (NCI).
Several values for one entry are separate records, joined by “and”; a condition that tells them apart may be missing. Identical values can stand only once.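 Five compound concentrations were applied to cells in 96-well plates for 48 hours; endpoints were derived by simple linear interpolation of the resulting dose-response curve. GI50: concentration for 50% inhibition of growth. Definition used: TGI = concentration required for complete inhibition of growth.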

What was measured:
Assay in all cases: growth of human tumour cells (NCI), 48 h
[1] = test system: RPMI-8226 leukemia
[2] = test system: A549 NSCLC
[3] = test system: 786-0 renal
[4] = test system: RXF 393 renal
[5] = test system: OVCAR-8 ovarian
[6] = test system: MALME-3M melanoma
[7] = test system: SNB-75 CNS
[8] = test system: MCF7 breast

Row | SMILES | GI50 [1] | TGI [1] | GI50 [2] | TGI [2] | GI50 [3] | TGI [3] | GI50 [4] | TGI [4] | GI50 [5] | TGI [5] | GI50 [6] | TGI [6] | GI50 [7] | TGI [7] | GI50 [8] | TGI [8]
1 | COc1ccc2c(c1)OC(N)=C(C#N)C2c1cc(OC)c(OC)c(OC)c1 (configuration not stated) | 38.9 nM | > 100000 nM | 40.1 nM | > 100000 nM | 53.8 nM | > 100000 nM | 34.4 nM | 73600 nM | 35.5 nM | > 70200 nM | 80500 nM | > 100000 nM | 39.4 nM | 45900 nM | 36.1 nM | > 100000 nM
2 | COc1ccc2nc3cc(Cl)ccc3c(NCCCNCCO)c2c1 | 497 nM | 2740 nM | 378 nM | 2060 nM | 531 nM | 1960 nM | 580 nM | 2220 nM | 415 nM | 2450 nM | 1210 nM | 2820 nM | 744 nM | 2260 nM | 355 nM | 2060 nM
3 | CC(=O)Nc1ccc(C(=O)CCl)cc1 | 2950 nM | 10000 nM | 18900 nM | 39200 nM | 4410 nM | 15200 nM | 3410 nM | 11600 nM | 7560 nM | 24200 nM | – | – | 3460 nM | 16000 nM | 1660 nM | 6540 nM
4 | C=C1C[C@H]2C=Nc3cc(OCCCOc4cc5c(cc4OC)C(=O)N4CC(=C)C[C@H]4C=N5)c(OC)cc3C(=O)N2C1 | 0.136 nM | 9.04 nM and 25.2 nM | 13.5 nM | > 100000 nM | 1.25 nM | – | – | < 29.2 nM | – | > 18400 nM | 12.2 nM | 29.2 nM and < 14.4 nM | 1.78 nM | 14.5 nM and < 15.5 nM | – | 41300 nM
5 | CC(C)=CCc1cc2c(cc1O)C1=C(C(=O)C3=C(C1=O)S(=O)(=O)CCN3)C(C=C(C)C)O2 (configuration not stated) | 3380 nM | 10100 nM | 2230 nM | 5590 nM | 2490 nM | 7030 nM | 596 nM | 2260 nM | 552 nM | 2120 nM | 122 nM | 397 nM | 1390 nM | 3720 nM | 354 nM | 1310 nM
6 | O=C1Nc2ccc(Cl)cc2/C1=C\c1c(-c2ccc(Cl)cc2)nc2sc(C3CC3)nn12 | 18100 nM | > 100000 nM | 3580 nM | 13900 nM | 4680 nM | 18800 nM | 1910 nM | 5090 nM | 3120 nM | 11500 nM | 2900 nM | 8790 nM | 1380 nM | 3190 nM | 4100 nM | 16600 nM
7 | COc1cc([N+](=O)[O-])c(OC)cc1-c1nc2sc(C)c(C)n2c1/C(N)=N/C(=N)N | 59300 nM | > 100000 nM | > 100000 nM | > 100000 nM | > 100000 nM | > 100000 nM | > 100000 nM | > 100000 nM | – | – | – | – | > 100000 nM | > 100000 nM | 1530 nM | > 100000 nM
